Patent publication US20070207195A1, “Genetic Screening for Polymorphisms in Human Genes that Increase or Decrease Sensitivity to Toxic Agents” (Applied Genetics Incorporated Dermatics, priority 2004, published 2007)

Tested on: NCI screening panel tumor cell lines
Test: Growth inhibition (GI50, sulforhodamine B) in NCI tumor cell line panel, correlated with polymorphic genotype
Type: cell-based, human
[1] = NOS3 t-786c, ratio of average GI(50) of genotypes, 48 h drug incubation

Procedure: The method tests a toxic agent over five 10-fold dilutions in cells for 48 hrs in a 5% CO2 atmosphere and 100% humidity. For most agents the highest concentration was 0.1 mM, but for the standard agents the highest well concentration depended on experience with the agent. DNA purified from each cell line was analyzed for SNPs at the alleles of interest. […] Cell suspensions were added to a microtiter plate and incubated for 24 h at 37° C. The drugs were added at concentrations spanning five 10-fold dilutions, and incubated for 48 h. The cells were assayed by staining the cells with sulforhodamine B, and a plate reader was used to read the optical densities. The results are expressed as a GI50 value, which is the drug concentration producing 50% growth inhibition, with correction for the cell count at time zero. […] The drug sensitivities for the polymorphs of each gene of interest were calculated in the following manner. For each drug, the average GI(50) for each polymorphic genotype was calculated, e.g., the GI(50) for the homozygous dominant, heterozygous and homozygous variant genotypes. Then the GI(50)s for all the drugs were analyzed among genotypes by nonparametric Friedman Repeated Measures ANOVA. In this test the GI(50) is only used for ranking among the genotypes for each drug, so errors due to sample size among genotypes are minimized. Statistical analysis of each pair of polymorphic genotypes was done by the Tukey-Kramer Multiple Comparison Test. Analysis of relative sensitivity of the genotypes to an individual drug was by parametric ANOVA. To determine the relative sensitivity of each pair of genotypes, the relative sensitivity to each drug was calculated by dividing the GI(50) of one genotype by the GI(50) of the other. The relative sensitivities for all the drugs were then averaged. For each pair of genotypes, we also calculated the percent of drugs in which one genotype was more sensitive than the other. […]

Structure (SMILES)	survival of NOS3 t-786c homozygous variant genotype relative to heterozygous genotype [1]	survival of NOS3 t-786c homozygous variant genotype relative to homozygous dominant genotype [1]	resistance of XRCC1 R399Q homozygous variant genotype versus homozygous dominant genotype (XRCC1 R399Q, single-drug analysis, p=0.045 Bonferroni adjusted multiple comparison test)
Nc1nc2nc[nH]c2c(=S)[nH]1 [thioguanine, Thioguanine]	35%	68%	–
CC[C@]1(O)C[C@@H]2CN(CCc3c([nH]c4ccccc34)[C@@](C(=O)OC)(c3cc4c(cc3OC)N(C)[C@H]3[C@@](O)(C(=O)OC)[C@H](OC(C)=O)[C@]5(CC)C=CCN6CC[C@]43[C@@H]65)C2)C1 [vinblastine]	–	–	significantly more resistant
